PMC6857051, “Proliferative regulation of alveolar epithelial type 2 progenitor cells by human Scnn1d gene” (Theranostics, 2019)

Columns and labels:
[1] = biological target: T1, human αβγ-ENaC (Homo sapiens, UniProt P37088+P51168+P51170); experiment: Two-electrode voltage clamp of αβγ-ENaC expressed in Xenopus oocytes; format: cell-based; details: oocytes pre-treated, currents at -100 mV, n=5, Figure 3D
T1 construct: expressed in transfected cells; host or cells: Xenopus laevis oocytes injected with cRNA (pGEM HE vector)
T1 sequence (P37088 1-669): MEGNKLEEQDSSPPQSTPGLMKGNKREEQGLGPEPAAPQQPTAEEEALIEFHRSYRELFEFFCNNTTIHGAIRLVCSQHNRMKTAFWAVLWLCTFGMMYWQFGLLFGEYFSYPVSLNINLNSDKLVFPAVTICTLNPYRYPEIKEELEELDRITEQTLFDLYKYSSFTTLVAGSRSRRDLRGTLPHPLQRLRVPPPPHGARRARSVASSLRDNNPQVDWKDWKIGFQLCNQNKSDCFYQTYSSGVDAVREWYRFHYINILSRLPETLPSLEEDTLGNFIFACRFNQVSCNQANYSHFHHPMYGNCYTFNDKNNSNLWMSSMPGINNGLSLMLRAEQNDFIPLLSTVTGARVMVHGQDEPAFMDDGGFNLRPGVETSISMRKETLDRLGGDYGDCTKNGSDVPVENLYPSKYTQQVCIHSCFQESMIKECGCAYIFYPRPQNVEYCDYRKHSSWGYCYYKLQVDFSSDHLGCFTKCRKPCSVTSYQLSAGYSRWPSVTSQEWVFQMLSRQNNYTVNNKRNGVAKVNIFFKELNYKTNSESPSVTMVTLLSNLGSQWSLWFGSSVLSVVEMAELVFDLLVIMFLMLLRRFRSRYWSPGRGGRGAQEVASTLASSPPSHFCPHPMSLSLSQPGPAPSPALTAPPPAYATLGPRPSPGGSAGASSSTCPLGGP
T1 sequence (P51168 1-640): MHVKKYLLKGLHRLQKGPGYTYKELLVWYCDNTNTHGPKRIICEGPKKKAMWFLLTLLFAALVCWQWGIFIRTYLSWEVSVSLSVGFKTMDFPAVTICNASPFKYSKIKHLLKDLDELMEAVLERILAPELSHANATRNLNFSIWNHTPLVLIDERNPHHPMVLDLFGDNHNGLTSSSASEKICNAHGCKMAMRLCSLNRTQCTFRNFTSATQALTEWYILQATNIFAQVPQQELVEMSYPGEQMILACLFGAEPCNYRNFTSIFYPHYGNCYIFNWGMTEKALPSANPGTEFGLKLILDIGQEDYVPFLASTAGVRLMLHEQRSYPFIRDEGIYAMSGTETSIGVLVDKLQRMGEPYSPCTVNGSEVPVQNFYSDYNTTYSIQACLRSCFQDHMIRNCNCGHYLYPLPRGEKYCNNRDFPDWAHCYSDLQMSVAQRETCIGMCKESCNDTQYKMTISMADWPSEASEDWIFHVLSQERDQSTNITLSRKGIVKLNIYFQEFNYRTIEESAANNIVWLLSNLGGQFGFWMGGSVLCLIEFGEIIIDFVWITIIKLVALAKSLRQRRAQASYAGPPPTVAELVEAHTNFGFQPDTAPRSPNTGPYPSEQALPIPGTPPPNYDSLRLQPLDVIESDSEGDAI
T1 sequence (P51170 1-649): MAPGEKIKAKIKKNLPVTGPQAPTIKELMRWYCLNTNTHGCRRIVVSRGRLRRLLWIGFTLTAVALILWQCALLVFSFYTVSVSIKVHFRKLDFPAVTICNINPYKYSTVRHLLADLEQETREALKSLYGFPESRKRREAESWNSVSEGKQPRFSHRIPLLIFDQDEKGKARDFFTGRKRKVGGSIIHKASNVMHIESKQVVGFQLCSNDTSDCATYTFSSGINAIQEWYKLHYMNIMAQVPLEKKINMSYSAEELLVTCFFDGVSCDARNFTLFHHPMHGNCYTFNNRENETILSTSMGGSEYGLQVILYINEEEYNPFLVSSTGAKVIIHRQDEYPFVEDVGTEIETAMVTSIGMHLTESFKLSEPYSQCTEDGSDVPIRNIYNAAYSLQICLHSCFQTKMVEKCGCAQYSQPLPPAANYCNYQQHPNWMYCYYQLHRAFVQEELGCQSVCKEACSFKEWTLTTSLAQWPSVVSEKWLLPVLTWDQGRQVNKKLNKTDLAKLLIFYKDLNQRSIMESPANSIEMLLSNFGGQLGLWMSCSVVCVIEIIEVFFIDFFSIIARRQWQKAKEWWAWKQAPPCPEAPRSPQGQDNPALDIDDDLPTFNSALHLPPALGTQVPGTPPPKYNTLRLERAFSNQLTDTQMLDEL
Experimental: (§1) Cloning, in vitro transcription, and heterologous expression of δ802 ENaC and two-electrode voltage clamping assay. δ802 and other ENaC subunits were generated in human ENaC cDNAs cloned into a pGEM HE vector [4], [76]. cRNAs of human α, β, and γ ENaC were prepared as described previously. The stoichiometry of native ENaC complexes is unclear to date. Based on the studies in the last decade, several models have been proposed for αβγ ENaC channels: 1α1β1γ, 2α1β1γ, 3α3β3γ. Based on the EM structure of human αβγ ENaC [35], the currently acceptable model of human αβγ ENaC complexes is heterotrimeric (1α1β1γ). Thus we microinjected δ802:β:γ in a 1:1:1 subunit ratio. Oocytes were surgically removed from appropriately anesthetized adult female Xenopus laevis (Xenopus Express). Briefly, the ovarian tissue was removed from the frog under anesthesia by tricaine-S (Western Chemicals) through a small incision in the lower abdomen. Ovarian lobes were removed and digested in OR-2 calcium-free medium (in mM: 82.5 NaCl, 2.5 KCl, 1.0 MgCl2, 1.0 Na2HPO4, and 10.0 HEPES, pH 7.5) with the addition of 2 mg/ml collagenase (Roche, Indianapolis). Defolliculated oocytes were injected with ENaC cRNAs into the cytosol (25 ng per oocyte in 50 nl of RNase-free water) and incubated in regular OR-2 medium at 18°C. The two-electrode voltage-clamp technique was used to record whole-cell currents 48 h post injection. Oocytes were impaled with two electrodes filled with 3M KCl, having resistance of 0.5 - 2 MΩ. A TEV-200A voltage-clamp amplifier (Dagan) was used to clamp oocytes with concomitant recording of currents. Two reference electrodes were connected to the bath. The continuously perfused bathing solution was ND-96 medium (in mM: 96.0 NaCl, 1.0 MgCl2, 1.8 CaCl2, 2.5 KCl, and 5.0 HEPES, pH 7.5). Whole-cell currents were recorded as previously reported. Experiments were controlled by pCLAMP 10.7 software (Molecular Devices), and currents at -40 mV, -100 mV, and +80 mV were continuously monitored with data recorded at intervals of 10 sec. Data were sampled at the rate of 200 Hz and filtered at 50 Hz.

[2] = biological target: T2, δ802αβγ-ENaC (Homo sapiens, UniProt P51168+P51170); experiment: Two-electrode voltage clamp of δ802αβγ-ENaC expressed in Xenopus oocytes; format: cell-based; details: oocytes pre-treated, currents at -100 mV, n=5, Figure 3D
T2 construct: We characterized full-length human δ802-ENaC expressed in both Xenopus oocytes and humanized transgenic mice; expressed in transfected cells; host or cells: Xenopus laevis oocytes injected with cRNA (pGEM HE vector)
T2 sequence (P51168 1-640): T1 sequence (P51168 1-640)
T2 sequence (P51170 1-649): T1 sequence (P51170 1-649)
Experimental: as §1

[3] = system: δ802- and γ-ENaC subunits; experiment: Immunoblot of cleavage of tagged δ802- and γ-ENaC subunits in oocytes by serine proteases; format: biochemical, human; details: 10 μg/ml, 45 minutes at room temperature
Experimental: Figure 3 Activation of δ802-containing ENaC channels by serine proteases. (A) Activation of δ802βγ ENaC expressed in Xenopus oocytes by two-chain urokinase plasminogen activator (tc-uPA). ENaC activity was measured at the membrane potential of -100 mV at defined time points post incubation with 10 μg/ml tc-uPA. n = 9-15. mean ± s.e.m. * P<0.05 vs data at the zero minute (min). (B) Time course of stimulatory effects of plasmin on δ802βγ-ENaC activity. n=12. * P<0.05. (C) Identification of subunit responsible for plasmin activation. Fold of amiloride-sensitive current (ASI) of ENaC-associated current in the presence of plasmin over that in the absence of plasmin was computed for oocytes expressing δ802+β+γ (δβγ), δ802 alone (δ), δ802+β(δβ), and δ802+γ (δγ). n = 12-15. * P<0.05. (D) Inhibitory effects of α-13 peptide on δ802αβγ- (δαβγ) and αβγ-ENaC activity post treatment of plasmin and aprotinin. Currents (I) at -100 mV were compared in the absence of amiloride (basal, open bar), presence of α-13 peptide (α13, closed bar), and amiloride (amil, grey bar). n=5. * P<0.05 vs basal currents, & P < 0.05 vs those in the presence of α-13 peptide. (E) Fractions of α-13 sensitive currents in cells pre-treated with plasmin and aprotinin. n=8. Control, without pre-treatment. (F) Cleavage of V5-tagged δ802- and γ-ENaC subunits by serine proteases. NI, non-injected oocytes as negative controls for ENaC expression. Oocytes incubated with chymotrypsin (CT, 10 μg/ml), plasmin (PI, 10 μg/ml) for 45 minutes at room temperature. Cells treated with the same volume of saline (‑) were controls for serine proteases.

Substance | effect of pre-treatment on αβγ-ENaC activity [1] | effect of pre-treatment on δ802αβγ-ENaC activity [2] | cleavage of δ802 subunit [3]
aprotinin | did not alter the current amplitude significantly | did not alter the current amplitude significantly | –
chymotrypsin | – | – | Neither chymotrypsin nor plasmin nor endogenous furin cleaved the δ802 subunit
